Reference: ChEMBL document CHEMBL1129627, “Nonlinear quantitative structure-activity relationship for the inhibition of dihydrofolate reductase by pyrimidines” (J Med Chem, 1996)

target: T1, Dihydrofolate reductase (Escherichia coli, UniProt P0ABQ4)
T1 sequence (P0ABQ4 whole entry): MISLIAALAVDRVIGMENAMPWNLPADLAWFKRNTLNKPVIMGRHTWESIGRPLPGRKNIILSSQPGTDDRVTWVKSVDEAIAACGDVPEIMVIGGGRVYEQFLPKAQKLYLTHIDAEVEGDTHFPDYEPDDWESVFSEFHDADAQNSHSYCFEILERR
Description: Negative logarithm of inhibition constant (-log Ki) against Dihydrofolate reductase in Escherichia coli

Q: How did the Ki turn out when `COc1cc(CC2CN=C(N)N=C2N)ccc1Cc1ccccc1` (stereo unspecified) was run?
A: 29.5 nM

Q: For `CS(=O)(=O)Oc1cccc(CC2CN=C(N)N=C2N)c1` (stereo unspecified), which Ki is on record?
A: 120 nM

Q: Which Ki does the source give for `NC1=NCC(Cc2ccc(O)cc2)C(N)=N1` (stereo unspecified) here?
A: 355 nM

Q: For `Cc1cc(CC2CN=C(N)N=C2N)cc(Cl)c1N` (stereo unspecified), which Ki is on record?
A: 1.35 nM

Q: With `COCCc1c(OC)cc(CC2CN=C(N)N=C2N)cc1OC` (stereo unspecified) as the compound, how does the Ki read?
A: 4.47 nM

Q: `NC1=NCC(Cc2cc(I)c(O)c(I)c2)C(N)=N1` (stereo unspecified) was tested. Which Ki did it give?
A: 1.51 nM

Q: With `COCCCCCCCOc1c(OC)cc(CC2CN=C(N)N=C2N)cc1OC` (stereo unspecified) as the compound, how does the Ki read?
A: 63.1 nM

Q: With `CCc1cc(CC2CN=C(N)N=C2N)cc(CC)c1CC` (stereo unspecified) as the compound, how does the Ki read?
A: 15.1 nM

Q: With `COc1ccc(CC2CN=C(N)N=C2N)cc1OS(C)(=O)=O` (stereo unspecified) as the compound, how does the Ki read?
A: 15.8 nM

Q: `CS(=O)(=O)Oc1ccc(CC2CN=C(N)N=C2N)cc1` (stereo unspecified) was tested. Which Ki did it give?
A: 251 nM

Q: How did the Ki turn out when `COCCC(=O)c1ccc(CC2CN=C(N)N=C2N)cc1C(=O)CCOC` (stereo unspecified) was run?
A: 60.3 nM

Q: For `CCCCCCCCOc1c(OC)cc(CC2CN=C(N)N=C2N)cc1OC` (stereo unspecified), which Ki is on record?
A: 13.5 nM

Q: `Cc1cc(CC2CN=C(N)N=C2N)cc(C)c1O` (stereo unspecified) was tested. Which Ki did it give?
A: 27.5 nM

Q: With `NC1=NCC(Cc2cc(Br)c(N)c(Br)c2)C(N)=N1` (stereo unspecified) as the compound, how does the Ki read?
A: 1.41 nM

Q: With `NC1=NCC(Cc2ccc([N+](=O)[O-])cc2)C(N)=N1` (stereo unspecified) as the compound, how does the Ki read?
A: 631 nM

Q: With `COc1ccc(CC2CN=C(N)N=C2N)cc1OCc1ccccc1` (stereo unspecified) as the compound, how does the Ki read?
A: 21.9 nM

Q: Which Ki does the source give for `COc1cc(CC2CN=C(N)N=C2N)cc(OC)c1OCc1ccccc1` (stereo unspecified) here?
A: 3.8 nM

Q: Which Ki does the source give for `NC1=NCC(Cc2ccc3c(c2)OCCO3)C(N)=N1` (stereo unspecified) here?
A: 74.1 nM

Q: With `NC1=NCC(Cc2cc(Cl)c(N)c(Cl)c2)C(N)=N1` (stereo unspecified) as the compound, how does the Ki read?
A: 1.35 nM

Q: With `COCCOc1ccc(CC2CN=C(N)N=C2N)cc1OC` (stereo unspecified) as the compound, how does the Ki read?
A: 17 nM

Q: `CCCOc1cc(CC2CN=C(N)N=C2N)cc(OCCC)c1` (stereo unspecified) was tested. Which Ki did it give?
A: 38.9 nM

Q: `NC1=NCC(Cc2ccc(OCc3ccccc3)cc2)C(N)=N1` (stereo unspecified) was tested. Which Ki did it give?
A: 129 nM

Q: For `COc1ccc(CC2CN=C(N)N=C2N)cc1C(F)(F)F` (stereo unspecified), which Ki is on record?
A: 20.4 nM

Q: Which Ki does the source give for `COc1ccc(CC2CN=C(N)N=C2N)cc1O` (stereo unspecified) here?
A: 145 nM

Q: For `COc1cc(CC2CN=C(N)N=C2N)cc(OC)c1C` (stereo unspecified), which Ki is on record?
A: 2.69 nM

Q: How did the Ki turn out when `CC(=O)Nc1ccc(CC2CN=C(N)N=C2N)cc1[N+](=O)[O-]` (stereo unspecified) was run?
A: 107 nM

Q: Which Ki does the source give for `COc1cc(CC2CN=C(N)N=C2N)ccc1OS(C)(=O)=O` (stereo unspecified) here?
A: 11.5 nM

Q: `CCCCCCOc1cccc(CC2CN=C(N)N=C2N)c1` (stereo unspecified) was tested. Which Ki did it give?
A: 138 nM

Q: `COc1c(I)cc(CC2CN=C(N)N=C2N)cc1I` (stereo unspecified) was tested. Which Ki did it give?
A: 1.51 nM

Q: With `NC1=NCC(Cc2ccc(OC(F)(F)F)cc2)C(N)=N1` (stereo unspecified) as the compound, how does the Ki read?
A: 269 nM

Q: For `COCCCCCCCOc1cc(CC2CN=C(N)N=C2N)ccc1OC` (stereo unspecified), which Ki is on record?
A: 69.2 nM

Q: For `COc1c(C)cc(CC2CN=C(N)N=C2N)cc1C` (stereo unspecified), which Ki is on record?
A: 18.2 nM

Q: `Cc1cc(C)cc(CC2CN=C(N)N=C2N)c1` (stereo unspecified) was tested. Which Ki did it give?
A: 91.2 nM

Q: Which Ki does the source give for `COc1cc(CC2CN=C(N)N=C2N)cc(OC)c1Br` (stereo unspecified) here?
A: 6.61 nM

Q: For `COc1cc(CC2CN=C(N)N=C2N)ccc1O` (stereo unspecified), which Ki is on record?
A: 28.8 nM

Q: For `CCCCCCOc1c(OC)cc(CC2CN=C(N)N=C2N)cc1OC` (stereo unspecified), which Ki is on record?
A: 13.5 nM
